Laboratory results as given in patent US20260028354A1, “TETRAHYDRONAPHTHALENE DERIVATIVES AS ESTROGEN RECEPTOR DEGRADERS” (REGENT OF THE UNIVERSITY OF MICHIGAN, priority 2022, published 2026).
Like-named read-outs stand apart in the source and are kept apart here.

Key:
[1] = molecular target: ERα_LBD (GST) (Homo sapiens (Human), UniProt P03372); experiment: IC50 measurements for binding to ERα_LBD (GST), LanthaScreen TR-FRET competitive binding; conditions: ERα_LBD (GST) 4 nM, Fluormone ES2 Green tracer, 60 min; read-out: ERα HTRF IC50
ERα_LBD (GST), sequence (P03372 311-547): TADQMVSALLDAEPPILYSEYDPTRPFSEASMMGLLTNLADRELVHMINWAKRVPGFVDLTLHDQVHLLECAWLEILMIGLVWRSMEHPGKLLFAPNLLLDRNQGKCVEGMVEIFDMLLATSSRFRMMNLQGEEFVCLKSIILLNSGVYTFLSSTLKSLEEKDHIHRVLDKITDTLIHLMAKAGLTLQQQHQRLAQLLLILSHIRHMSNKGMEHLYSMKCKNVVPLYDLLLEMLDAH
Protocol: In vitro Assay: IC50 Measurements for binding to ERα_LBD (GST) • Final assay conditions: • 1. ERα_LBD (GST) protein: 4 nM • 2. Tb Anti-GST: 2 nM • 3. Fluormone ES2 Green tracer: 3 nM • 4. Incubation time: 60 min • 5. DMSO: 1% • 6. Assay buffer: Adding 1M DTT to Nuclear receptor Buffer K for final 5 mM DTT. • 7. ZPE: 1% DMSO • 8. HPE: 1 μM ARV_471 (positive control) • 9. LanthaScreen® TR-FRET ERα Competitive Binding Assay (ThermoFisher, #A^15887) • 100× Compound preparation
1) Cherry pick 2 μL 10 mM compound stock to column 1 of a 384 intermediate plate. • 2) Add 18 μL DMSO to column 1 to dilute compound to 1 mM. • 3) Transfer 10 μL 1 mM compound to column 1 of a LDV plate. • 2) Add 6 μl DMSO to column 2-10 of the LDV plate. • 3) Compounds undergo 3-fold serial dilution (3 μL+6 μL) in DMSO. • 4) Transfer 120 nL compound solution to assay plate. ZPE: 120 nL 100% DMSO • Procedure:
Complete nuclear receptor buffer K was prepared by adding 1 M DTT to nuclear receptor buffer K for a final concentration of 5 mM DTT. Complete nuclear receptor buffer K must be prepared fresh daily, 2X protein solution was prepared using complete nuclear receptor buffer K containing 8 nM ERα_LBD (GST) and 4 nM Tb Anti-GST. Then, 2X Fluormone ES2 Green tracer (6 nM) was prepared using complete nuclear receptor buffer K. Add 6 μL 2X Fluormone ES2 green tracer into a compound plate (PerkinElmer 6008289) by dragonfly with one-tips-addition. Subsequently, 6 μL 2× protein solution was added into the plate. The 384-well plate was mixed on a plate shaker and incubated at room temperature protected from light for 60 min. The plate was scaled with a cover to minimize evaporation. The plate was read at wavelengths of 520 nm and 495 nm. The TR-FRET ratio was calculated by dividing the emission signal at 520 nm by the emission signal at 495 nm. A binding curve was generated by plotting the emission ratio vs, the log [ligand]. To determine the IC50 value, fit the data using XL-fit for a sigmoidal dose-response.

[2] = molecular target: ER in T47D cells (Homo sapiens (Human), UniProt P03372); experiment: In-cell Western (ICW) ER degradation assay in T47D cells; assay type: cell-based; conditions: for DC50: ER degradation
ER in T47D cells, sequence (P03372 whole entry): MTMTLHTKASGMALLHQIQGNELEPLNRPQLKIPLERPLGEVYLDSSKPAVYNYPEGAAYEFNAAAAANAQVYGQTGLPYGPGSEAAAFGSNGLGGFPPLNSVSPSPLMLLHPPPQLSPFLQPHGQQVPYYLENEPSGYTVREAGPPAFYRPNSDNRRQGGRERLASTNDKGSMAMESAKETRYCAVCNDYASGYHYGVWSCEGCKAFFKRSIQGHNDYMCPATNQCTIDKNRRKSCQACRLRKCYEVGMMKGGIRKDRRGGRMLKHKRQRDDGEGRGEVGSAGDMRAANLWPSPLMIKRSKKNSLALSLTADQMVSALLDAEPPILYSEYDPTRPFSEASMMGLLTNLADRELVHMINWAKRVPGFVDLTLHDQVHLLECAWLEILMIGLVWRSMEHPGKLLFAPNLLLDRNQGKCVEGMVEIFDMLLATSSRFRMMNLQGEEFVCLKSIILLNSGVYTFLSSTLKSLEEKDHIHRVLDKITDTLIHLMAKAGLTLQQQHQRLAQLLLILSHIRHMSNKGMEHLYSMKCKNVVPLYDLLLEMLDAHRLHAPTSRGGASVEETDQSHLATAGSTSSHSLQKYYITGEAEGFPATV

[3] = molecular target: CRBN/DDB1 (Homo sapiens (Human), UniProt Q96SW2); assay type: binding; conditions: His tagged CRBN+DDB1, Cy5-labeled Thalidomide probe, one hour; read-out: CRBN HTRF IC50
CRBN/DDB1, sequence (Q96SW2 whole entry, species assumed): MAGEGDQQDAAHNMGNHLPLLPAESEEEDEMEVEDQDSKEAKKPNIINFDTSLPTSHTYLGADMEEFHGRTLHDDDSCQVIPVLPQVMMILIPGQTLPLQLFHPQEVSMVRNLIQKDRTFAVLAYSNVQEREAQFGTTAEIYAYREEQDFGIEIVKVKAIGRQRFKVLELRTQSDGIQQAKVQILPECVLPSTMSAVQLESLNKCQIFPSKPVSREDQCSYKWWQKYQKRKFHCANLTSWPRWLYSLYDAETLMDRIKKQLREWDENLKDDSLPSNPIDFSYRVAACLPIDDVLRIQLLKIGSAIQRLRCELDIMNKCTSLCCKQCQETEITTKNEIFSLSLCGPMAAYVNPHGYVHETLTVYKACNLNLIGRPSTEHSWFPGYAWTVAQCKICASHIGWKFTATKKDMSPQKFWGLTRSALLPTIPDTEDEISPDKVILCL
CRBN/DDB1, sequence (Q16531 whole entry partner, species assumed): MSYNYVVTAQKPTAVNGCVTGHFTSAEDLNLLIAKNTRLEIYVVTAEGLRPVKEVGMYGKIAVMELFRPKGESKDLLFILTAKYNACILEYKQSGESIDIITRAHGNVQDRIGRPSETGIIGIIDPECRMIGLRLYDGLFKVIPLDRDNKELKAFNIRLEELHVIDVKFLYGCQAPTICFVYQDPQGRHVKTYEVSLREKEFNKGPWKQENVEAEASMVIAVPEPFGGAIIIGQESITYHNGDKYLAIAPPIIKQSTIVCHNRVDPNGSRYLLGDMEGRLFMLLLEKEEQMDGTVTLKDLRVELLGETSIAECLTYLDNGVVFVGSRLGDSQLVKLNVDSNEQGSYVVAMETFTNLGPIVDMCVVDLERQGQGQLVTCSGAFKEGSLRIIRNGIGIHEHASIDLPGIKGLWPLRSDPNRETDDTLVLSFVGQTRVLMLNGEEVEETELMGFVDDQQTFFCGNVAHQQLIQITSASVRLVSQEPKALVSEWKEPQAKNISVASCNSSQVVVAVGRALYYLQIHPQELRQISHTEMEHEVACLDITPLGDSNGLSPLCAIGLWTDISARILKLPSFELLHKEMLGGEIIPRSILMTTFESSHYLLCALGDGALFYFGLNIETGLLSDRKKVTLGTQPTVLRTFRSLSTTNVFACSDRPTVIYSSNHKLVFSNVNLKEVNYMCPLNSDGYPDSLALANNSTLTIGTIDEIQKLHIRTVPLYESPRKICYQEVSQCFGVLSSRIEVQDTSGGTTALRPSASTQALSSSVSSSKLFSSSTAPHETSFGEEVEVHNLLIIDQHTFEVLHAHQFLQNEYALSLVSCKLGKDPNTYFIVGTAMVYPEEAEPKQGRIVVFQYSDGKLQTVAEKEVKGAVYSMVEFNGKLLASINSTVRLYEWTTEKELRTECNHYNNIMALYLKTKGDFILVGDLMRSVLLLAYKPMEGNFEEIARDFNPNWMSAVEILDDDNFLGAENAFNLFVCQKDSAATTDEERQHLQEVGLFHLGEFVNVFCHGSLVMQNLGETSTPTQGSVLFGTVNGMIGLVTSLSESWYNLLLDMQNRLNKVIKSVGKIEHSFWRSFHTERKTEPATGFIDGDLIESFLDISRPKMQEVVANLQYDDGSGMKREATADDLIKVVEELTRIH
Protocol: The binding potency was determined using HTRF assay technology (Perkin Elmer). Compounds were serially diluted in DMSO and […] volume was transferred to white 384-well plate.

[4] = molecular target: ER in MCF-7 cells (Homo sapiens (Human), UniProt P03372); experiment: In-cell Western (ICW) ER degradation assay in MCF-7 cells; assay type: cell-based; conditions: for DC50: MCF-7, ER degradation, read-out: MCF7 DC50
ER in MCF-7 cells, sequence (P03372 whole entry): as the sequence (P03372 whole entry) above

[5] = maximal ER degradation, 16 hrs treatment, read-out: T47D Dmax
[6] = MCF7, MCF-7, maximal ER degradation, 16 hrs treatment, read-out: MCF7 Dmax
[7] = read-out: T47D Dmax, T47D, maximal ER degradation, 16 hrs treatment
[8] = MCF7, read-out: MCF7 Dmax, MCF-7, maximal ER degradation, 16 hrs treatment

| SMILES | IC50 [1] [nM] | DC50 ([2]; 16 hrs treatment) [nM] | Dmax [2, 5] [%] | IC50 [3] [nM] | Dmax [4, 6] [%] | DC50 ([4]; 16 hrs treatment) [nM] | Dmax [2, 7] [%] | Dmax [4, 8] [%] |
| --- | --- | --- | --- | --- | --- | --- | --- | --- |
| O=C1CCC(NC(=O)c2ccc3c(n2)OC[C@H]2CN(CC4CCN(c5ccc([C@@H]6c7ccc(O)cc7CC[C@@H]6c6ccccc6)cc5)CC4)CCN32)C(=O)N1 (stereo partly drawn) [Compound A2, (4aR)-N-(2,6-dioxopiperidin-3-yl)-3-((1-(4-((1R,2S)-6-hydroxy-2-phenyl-1,2,3,4-tetrahydronaphthalen-1-yl)-phenyl)piperidin-4-yl)meth-yl)-1,2,3,4,4a,5-hexahydro-pyrazino[1,2-d]pyrido[2,3-b] [1,4]oxazine-8-carboxamide] | < 10 | < 1 | > 75 | 500 to 5000 | > 75 | < 1 |  |  |
| O=C1CC[C@H](N2Cc3c(ccc4c3OCC43CCN(CC4CC5(CCN(c6ccc([C@@H]7c8ccc(O)cc8CC[C@@H]7c7ccccc7)cn6)CC5)C4)CC3)C2=O)C(=O)N1 [Compound A116, (S)-3-(1′-((7-(5-((1S,2S)-6-hydroxy-2-phenyl-1,2,3,4-tetra-hydronaphthalen-1-yl)pyridin-2-yl)-7-azaspiro[3.5]nonan-2-yl)methyl)-6-oxo-6,8-dihydro-2H,7H-spiro[furo[2,3-e]iso-indole-3,4′-piperidin]-7-yl)-piperidine-2,6-dione] | < 10 | < 1 |  | < 50 |  | < 1 | > 75 | 50 to 75 |
| COc1cc(N2CCC3(CC2)CC(CN2CCN4c5cc6c(cc5OC[C@@H]4C2)C(=O)N([C@H]2CCC(=O)NC2=O)C6)CO3)ccc1[C@H]1c2ccc(O)cc2CC[C@H]1c1ccccc1 (single isomer, unassigned) [Compound A56] | < 10 | < 1 |  |  |  | < 1 | > 75 | 50 to 75 |
| COc1cc(N2CCC3(CC2)CC(CN2CCC(c4ccc(N[C@H]5CCC(=O)NC5=O)cc4)CC2)C3)c(F)cc1[C@@H]1c2ccc(O)cc2CC[C@@H]1c1ccccc1 (single isomer, unassigned) [Compound A30] | < 10 | < 1 | > 75 |  | 50 to 75 | < 1 |  |  |
| O=C1CC[C@H](N2Cc3c(ccc4c3OCC43CCN(CC4CCC5(CC4)CN(c4ccc([C@@H]6c7ccc(O)cc7CC[C@@H]6c6ccccc6)cn4)C5)CC3)C2=O)C(=O)N1 [Compound A131, (S)-3-(1′-((2-(5-((1S,2S)-6-hydroxy-2-phenyl-1,2,3,4-tetrahydronaphthalen-1-yl)pyridin-2-yl)-2-azaspiro[3.5]nonan-7-yl)methyl)-6-oxo-6,8-dihydro-2H,7H-spiro[furo[2,3-e]isoindole-3,4′-piperidin]-7-yl)piperidine-2,6-dione] | < 10 |  |  | < 50 |  | < 1 |  | > 75 |
| O=C1CC[C@H](N2Cc3c(ccc4c3OCC43CCN(CC4CCC5(CC4)CN(c4ccc([C@@H]6c7ccc(O)cc7CC[C@@H]6c6ccccc6)cc4F)C5)CC3)C2=O)C(=O)N1 [Compound A161, (S)-3-(1′-((2-(2-fluoro-4-((1R, 2S)-6-hydroxy-2-phenyl-1,2,3,4-tetrahydronaphthalen-1-yl)phenyl)-2-azaspiro[3.5]nonan-7-yl)methyl)-6-oxo-6,8-dihydro-2H,7H-spiro[furo[2,3-e]isoindole-3,4′-piperidin]-7-yl)piperidine-2,6-dione] | < 10 |  |  | < 50 |  | < 1 |  | 50 to 75 |
| COc1cc(N2CCC(CN3CCC4(CC3)COc3cc5c(cc34)CN([C@H]3CCC(=O)NC3=O)C5=O)CC2)ccc1[C@@H]1c2ccc(O)cc2CC[C@@H]1c1ccccc1 [Compound A33, (R)-3-(1′-((1-(4-((1R,2R)-6-hydroxy-2-phenyl-1,2,3,4-tetrahydronaphthalen-1-yl)-3-methoxyphenyl)piperidin-4-yl)methyl)-7-oxo-5,7-dihydro-2H,6H-spiro[furo[2,3-f]iso-indole-3,4′-piperidin]-6-yl)-piperidine-2,6-dione] | < 10 | < 1 |  |  |  | < 1 | 50 to 75 | 50 to 75 |
| COc1cc(N2CCC3(CC2)CC(CN2CCN4c5ccc6c(c5OC[C@H]4C2)CN([C@H]2CCC(=O)NC2=O)C6=O)CO3)ccc1[C@H]1c2ccc(O)cc2CC[C@H]1c1ccccc1 (single isomer, unassigned) [Compound A52] | < 10 | < 1 |  |  |  | < 1 | > 75 | 50 to 75 |
